{"source": "patent US20240197760A1", "about": "“ACTIVATORS OF INTEGRATED STRESS RESPONSE PATHWAY FOR PROTECTION AGAINST FERROPTOSIS” (Burke Neurological Institute, priority 2021, published 2024)", "key": {"[1]": {"tested_on": "AMPK", "assay": "AMPK phosphorylation (threonine 172) immunoblot in primary cortical neurons", "assay_type": "cell-based, mouse", "conditions": "increasing concentrations 1-15 mM, 4 h", "procedure": "Whole cell proteins were extracted in Triton X-100 lysis buffer (1% Triton X-100, 1% SDS, 50 mM Tris-Cl, pH 7.4, 500 mM NaCl and 1 mM EDTA). Samples were boiled in Laemmli buffer and electrophoresed under reducing conditions on NuPAGER Novex 4-12% Bis-Tris Gel polyacrylamide gels (Invitrogen). Proteins were transferred to a nitrocellulose membrane (Bio-Rad) by electroblotting. Nonspecific binding was inhibited by incubation in Odyssey blocking buffer (LI-COR Biosciences). Antibodies against Glut3 (Abcam, Catalog no. AB41525, dilution 1:1000), actin (Sigma Aldrich, Catalog no. A5316, dilution 1:10000), BDNF (Santacruz Biotechnology, Catalog no. sc-546, dilution 1:10,000), tubulin (Sigma Aldrich, Catalog no. T8203, dilution 1:10000), p-AMPK (Cell Signaling Technology, Cat no. 2535L, dilution 1:1000), AMPK (Cell Signaling Technology, Cat no. 2532L, dilution 1:1000), GFP (Cell Signaling Technology, Cat no. 2555S, dilution 1:2000), elF2S1 (phospho S51) (Abcam, Catalog no. AB32157, dilution 1:500), and eIF2α (Cell Signaling Technology, Cat no. 9722, dilution 1:500) were diluted in odyssey blocking buffer and the membranes were incubated overnight at 4° C. […] Finally, proteins were detected using an Odyssey infrared imaging system (LI-COR Biosciences)."}, "[2]": {"tested_on": "Trib3, Chac1, Bip", "assay": "Expression of ATF4 target genes and chaperone Bip in mouse primary neurons", "assay_type": "cell-based", "conditions": "6 h, mouse primary neurons", "procedure": "Total RNA was extracted from primary cortical neurons using NucleoSpin RNA II Kit (Clontech, Catalog number—740955-250). Thereafter, using the Taqman RNA-to-Ct, one step kit (Thermo Fisher Scientific, catalog number—4392938) and following the manufacturer's instructions, […] from each sample was mixed with the Taqman® Gene Expression Master Mix and Taqman® Gene Expression Assays for Creb1 (Catalog number—Mm00501607_m1), Bdnf (Catalog number—Mm04230607_s1), Rbbp4 (Catalog number—Mm00771401_g1), Bip (Catalog number—Mm00517691_m1), Trib3 (Catalog number—Mm00454879_m1), and Chac1 (Catalog number—Mm00509926_m1) with FAM labelled probe and Actin with VIC labelled probe all from Thermo Fisher Scientific on an Applied Biosystems 7500 Fast Real Time PCR System. For assessing gene expression of various specific Bdnf exons in mouse primary neurons, two step qPCR was used. Total RNA from primary cortical neurons was extracted using NucleoSpin RNA II Kit (Clontech, Catalog number—740955-250) and a total of 1.5 μg RNA was used to synthesize cDNA with the SuperScript® III First-Strand Synthesis System (Thermo Fisher Scientific, Catalog number—18080051). Quantitative RT-PCR was then performed using SYBR green (Thermo Fisher Scientific, Catalog number—4309155) on an Applied Biosystems 7500 Fast Real Time PCR System. Quantitative levels for all genes were normalized to the housekeeping gene GAPDH and expressed relative to the relevant control samples as fold change. The sequences of primers used in this part of the study were as follows: Bdnf I forward: […] (SEQ ID NO:9) and Bdnf I reverse: […] (SEQ ID NO:10); Bdnf II forward: […] (SEQ ID NO:11) and Bdnf II reverse: […] (SEQ ID NO:12); Bdnf IV forward #2: […] (SEQ ID NO:13) and Bdnf IV reverse #2: […] (SEQ ID NO:14); Bdnf VI forward: […] (SEQ ID NO:15) and Bdnf VI reverse: […] (SEQ ID NO:16); Bdnf VII forward: […] (SEQ ID NO:17) and Bdnf VII reverse: […] (SEQ ID NO:18) Bdnf IX forward: […] (SEQ ID NO:19) and Bdnf IX reverse: […] (SEQ ID NO:20); Gapdh forward #2: […] (SEQ ID NO:21) and Gapdh reverse #2: […] (SEQ ID NO: 22)."}}, "note": "Entries after “also recorded” stand apart in the source; their conditions may differ.", "data": [{"smiles": "OC[C@H]1OC(O)C[C@@H](O)[C@@H]1O", "note": "(stereo partly drawn) [2-DG, (4R,5S,6R)-6-(hydroxymethyl)oxane-2,4,5-triol]", "values": [{"measurement": "level of AMPK phosphorylation at threonine 172", "setting": "[1]", "result": "biphasic"}, {"measurement": "expression of ATF4 target genes Trib3 and Chac1", "setting": "[2]", "result": "enhanced expression; also recorded: Increase"}]}]}
